Measurements taken from article PMC10268404, “Insight into broad substrate specificity and synergistic contribution of a fungal α-glucosidase in Chinese Nong-flavor daqu” (Microbial Cell Factories, 2023).

Assays:
[1] = test system: T1, NFAg31A (also printed NFEg31A), product of ORF15963; experiment: p-nitrophenol release at […] nm, Michaelis-Menten fit; format: biochemical; details: pH 7.0, 45 ℃, 15 min, 0.25 µM enzyme
T1 construct: 960 aa ORF without 30 aa signal peptide (primer-derived start M-VKHENFKK, end REWRI), incl; C-terminal DUF5100; 6xHis kept, printed C-terminal (but reverse primer holds a stop, so probably N-terminal pET-28a tag); E. coli BL21(DE3)

[2] = test system: T1, NFAg31A (also printed NFEg31A), product of ORF15963; experiment: HPAEC-PAD of released glucose, Michaelis-Menten fit; format: biochemical; details: pH 7.0, 45 ℃, 15 min, 0.25 µM enzyme
Excerpt: HPAEC-PAD of released glucose, Michaelis-Menten fit on NFAg31A (also printed NFEg31A), product of ORF15963

Km [1] [mM]	Km [2] [mM]	SMILES
0.55 ± 0.06	–	O=[N+]([O-])c1ccc(O[C@H]2O[C@H](CO)[C@@H](O)[C@H](O)[C@H]2O)cc1 [pNPαG, p-Nitrophenyl-α-D-glucopyranoside]
–	3.9 ± 0.3	OC[C@H]1O[C@H](O[C@H]2C(O)O[C@H](CO)[C@@H](O)[C@@H]2O)[C@H](O)[C@@H](O)[C@@H]1O (stereo partly shown) [Kojibiose]
–	11.5 ± 0.7	OC[C@H]1O[C@H](O[C@H]2[C@H](O)[C@@H](O)C(O)O[C@@H]2CO)[C@H](O)[C@@H](O)[C@@H]1O (stereo partly shown) [Maltose]
–	19.3 ± 2.5	OC[C@H]1O[C@H](O[C@H]2[C@H](O)[C@@H](CO)OC(O)[C@@H]2O)[C@H](O)[C@@H](O)[C@@H]1O (stereo partly shown) [Nigerose]
